Test results: US8420621B2, “Methods of using gamma cyclodextrin to control blood glucose and insulin secretion” (Abbott Laboratories, priority 2004, dated 2013)

How the values were obtained:
healthy adult subjects [1] = experiment: Clinical study: gastrointestinal tolerance, stool frequency and consistency; format: in vivo, human
Description: For the pre-study tolerance test, subjects were instructed to not consume anything the day before that was known by them to cause gastrointestinal symptoms. They also completed an overnight 10-16 hour fast. The morning of the test visit, subjects reported to the study site and consumed 8 fl oz of one of the two study beverages within 10 minutes. The study beverage contained either 25 […] of maltodextrin or 25 grams of gamma-cyclodextrin. Subjects then resumed fasting. Subjects were allowed to leave the study site after the beverage had been consumed, however they were instructed to remain fasting for three hours from the time they began drinking the beverage. Subjects recorded gastrointestinal tolerance symptoms and stool frequency and consistency for 24 hours from the time they began drinking the study beverage. Upon subject completion of the gastrointestinal tolerance symptoms and stool frequency and consistency forms, the data were reviewed for signs of abnormal tolerance by a physician. The purpose of this symptom review was to determine if the product was generally well-tolerated. […] After the 180-minute blood and breath samples were collected, the subject was allowed to leave the study site and collect the remaining breath samples (hours 4-8) on their own. During the remainder of the breath collection period, the subject was instructed to refrain from sleep and exercise. Subjects were to remain fasting with the exception of an optional one or two 8 fl oz cans of Ensure® Plus. The flavor given to each subject was the same as that which was chosen for the pre-treatment meals, and the number of cans chosen remained constant for both treatments. Subjects were allowed to consume water as desired during this time. After completion of breath sample collection, subjects were free to resume their normal sleeping, eating, and exercise patterns. They continued to record gastrointestinal symptoms, stool frequency and consistency, and medication usage for the next 48 hours. […]

[2] = tested on: male fatty Zucker fa/fa rats; experiment: Meal glucose tolerance test, postprandial glycemic response to a carbohydrate challenge; format: in vivo, rat
Source text: The objective of the animal study was to evaluate the postprandial glycemic response of male fatty Zucker fa/fa rats to a carbohydrate challenge consisting of gamma-cyclodextrin or maltodextrin.
Twenty male fatty Zucker fa/fa rats were obtained from Harlan (Indianapolis, Ind., USA). At the time of testing, rats weighed ˜450 grams. Rats were individually housed in microisolator cages on dry bedding and were given ad libitum access to water and non-purified rat diet (pelletted; 8640 Harlan Teklad 22/5 Rodent Diet; Harlan Teklad, Madison, Wis., USA). The housing facility was maintained at 19-23° C., 30-70% relative humidity, and 12-hour light-dark cycle.
Test carbohydrates were evaluated in a randomized crossover design with a 7-day washout period between each meal glucose tolerance test (MGTT). Every rat received each treatment. Rats were routinely fed the non-purified diet. After overnight food deprivation, rats were orally fed test meals as a solution. Rats consumed the test meal within 1 minute. Blood samples were collected from the tail vein and immediately analyzed for plasma glucose by the glucose oxidase method utilizing a Precision G Blood Glucose Testing System (Medisense, Inc., Bedford, Mass., USA) before (0 minutes) and 30, 60, 90, 120, and 180 minutes postprandial. Rats had free access to water throughout the […].
Lodex 15® (maltodextrin) was obtained from Cerestar USA (Hammond, Ind., USA) with a dextrose equivalence (DE) of 15. Gamma-cyclodextrin (Wacker Cavamax W8) was obtained from Wacker Biochem Corp., Müchen, Germany. Carbohydrates were made into 500 g/L solutions with water. Each solution was heated in a microwave for 30 seconds to completely solubilize the carbohydrate solutions 1 hour before testing. Test meal volume was ˜1 mL and was adjusted such that each rat was delivered an equivalent carbohydrate challenge (1.0 g/kg body weight).

healthy adult subjects [3] = experiment: Clinical study: breath hydrogen test for carbohydrate malabsorption; format: in vivo, human; settings: 3 hours after 50 g oral; p=0.01
Description: Upon completion of baseline samples, the subject proceeded to the study site and consumed 16 fl oz of one of the two test beverages in no more than 10 minutes. After consumption of the study beverage, the subject resumed fasting. Time 0 was designated as the time at which the subject began drinking the study beverage. Additional venous blood samples and capillary plasma glucose finger sticks were collected at 15, 30, 45, 60, 90, 120, 150, and 180 […] minutes after the start of the study beverage. Additional breath samples were collected at 1, 2, 3, 4, 5, 6, 7, and 8 (±10 minutes) hours postprandially. Subjects were limited to the consumption of 8 fl oz of water during this three hour blood collection period. Approximately 10 mL of normal saline was injected into the vein after each blood draw in order to keep the line open and to replace the fluid lost from the blood collected.
After the 180-minute blood and breath samples were collected, the subject was allowed to leave the study site and collect the remaining breath samples (hours 4-8) on their own. During the remainder of the breath collection period, the subject was instructed to refrain from sleep and exercise. Subjects were to remain fasting with the exception of an optional one or two 8 fl oz cans of Ensure® Plus. […]
Breath hydrogen was analyzed to determine if the carbohydrate in the study product had been malabsorbed. […]

## OC[C@H]1O[C@@H]2O[C@H]3[C@H](O)[C@@H](O)[C@@H](O[C@H]4[C@H](O)[C@@H](O)[C@@H](O[C@H]5[C@H](O)[C@@H](O)[C@@H](O[C@H]6[C@H](O)[C@@H](O)[C@@H](O[C@H]7[C@H](O)[C@@H](O)[C@@H](O[C@H]8[C@H](O)[C@@H](O)[C@@H](O[C@H]9[C@H](O)[C@@H](O)[C@@H](O[C@H]1[C@H](O)[C@H]2O)O[C@@H]9CO)O[C@@H]8CO)O[C@@H]7CO)O[C@@H]6CO)O[C@@H]5CO)O[C@@H]4CO)O[C@@H]3CO [Gamma-Cyclodextrin, Gamma-cyclodextrin]
Healthy adult subjects [1]; 25 grams oral, 24 hours, reviewing physician
  Gastrointestinal tolerance versus maltodextrin, pre-study tolerance test: no significant differences
Healthy adult subjects [1]; 50 g oral
  Stool frequency and consistency, difference between treatments: no significant differences
Healthy adult subjects [1]; first 24 hours after 50 g oral, crossover analysis
  Intensity and frequency of nausea, difference between treatments: not significantly different
[2]; 0 min, 1.0 g/kg body weight oral
  Change from baseline in plasma glucose, Change@ 0 min: 0
[2]; 30 min, 1.0 g/kg body weight oral
  Change from baseline in plasma glucose, Change@ 30 min: 52.0 ± 9.4
[2]; 30 min postprandial, 1.0 g/kg body weight oral
  Plasma glucose, 30 min: 165.6 ± 10.6
[2]; 60 min, 1.0 g/kg body weight oral
  Change from baseline in plasma glucose, Change@ 60 min: 48.1 ± 5.5
[2]; 60 min postprandial, 1.0 g/kg body weight oral
  Plasma glucose, 60 min: 161.8 ± 7.8
[2]; 90 min, 1.0 g/kg body weight oral
  Change from baseline in plasma glucose, Change@ 90 min: 38.0 ± 4.1
[2]; 90 min postprandial, 1.0 g/kg body weight oral
  Plasma glucose, 90 min: 151.6 ± 7.0
[2]; 120 min, 1.0 g/kg body weight oral
  Change from baseline in plasma glucose, Change@ 120 min: 39.4 ± 4.3
[2]; 120 min postprandial, 1.0 g/kg body weight oral
  Plasma glucose, 120 min: 153.1 ± 6.5
[2]; 180 min, 1.0 g/kg body weight oral
  Change from baseline in plasma glucose, Change@ 180 min: 28.9 ± 5.3
[2]; 180 min postprandial, 1.0 g/kg body weight oral
  Plasma glucose, 180 min: 142.6 ± 6.4
[2]; at 60 and 90 minutes, P<0.05
  Glucose concentration compared to consumption of maltodextrin: lower
[2]; baseline before test meal, 1.0 g/kg body weight oral, mean ± spread
  Plasma glucose, 0 min: 113.6 ± 4.2
[2]; oral, 1.0 g/kg, after heat treatment of the solution
  Glycemic response relative to a comparable amount of Lodex 15: blunted glycemic response
Healthy adult subjects [3]
  Breath hydrogen compared to maltodextrin: significantly higher
